Measurements as given in patent US20250282795A1, “EGFR Inhibitors in cancer treatment” (Celyn Therapeutics, Inc., priority 2022, published 2025).

Columns and labels:
Type in all cases: cell-based
Ba/F3 (L858R + T790M) = assay: Cellular growth inhibition assay (CellTiter-Glo), Ba/F3 (L858R+T790M); settings: Mus musculus, BaF3, 72 h; 3 days of incubation
Description: (§1) Example E. Cellular Growth Inhibition Assay
(§2) Ba/F3(Empty vector) (Signosis), Ba/F3(Wild type) (Signosis), Ba/F3(L^858R+T790M) (Signosis), Ba/F3(A767_dupASV) (Signosis), Ba/F3(D770_N771insSVD) (Signosis), Ba/F3(H773_V774insNPH) (Signosis) were seeded at a density of 4000 cells per well in a CellBIND® 384-well Flat Clear Bottom Black Polystyrene Microplates (Coming, USA, Cat #3770) in 45 μl total volume of RPMI (PanEco, Cat #C330, Russia) with […] (HyClone, Cat #SV30160.03) and with 10 ng/ml rmIL-3 (RD systems, USA, Cat #403-ML-025) (for BaBF3(Empty vector)) and with 10 ng/ml rhEGF (ThermoFisher, USA, Cat #PHG0311L) (for BaCF3(Wild type)). 500× compounds solutions in DMSO (Sigma Cat #D2650) were prepared into Cmpnds plate (DiamondWell Plate, Axigen, Cat #P-384-120SQ-C—S) and DMSO only control was included. 1.l of 500× compounds (Cmpnds plate) was added to 49 µl of culture medium into Dilution plate (Diamond Well Plate, Axigen, Cat #P-384-120SQ-C—S), mixed and then 5 μl of 10× compounds solutions were transferred to cells followed by centrifugation at 100 g for 1 min. Final DMSO concentration was 0.2% o. After 3 days of incubation 10.l of CellTiter-Glo (Promega, CAT #G7572) were added to the cells, plate was centrifuged at 100 g for 1 min and luminescence signal was measured using Microplate Reader (CLARIOStar).

Ba/F3 (EGFRwt) = assay: Cellular growth inhibition assay (CellTiter-Glo), Ba/F3 (EGFRwt); settings: Mus musculus, BaF3, 72 h; Ba/F3 (Wild type) with 10 ng/ml rhEGF, 3 days of incubation
Description: as §1, §2

[1] = Cellular growth inhibition assay (CellTiter-Glo), Ba/F3 (Empty vector); settings: mouse, Ba/F3 cells with empty vector; Ba/F3 (Empty vector) with 10 ng/ml rmIL-3, 3 days of incubation
Description: as §1, §2

Ba/F3 (D770_N771insSVD) = assay: Cellular growth inhibition assay (CellTiter-Glo), Ba/F3 (D770_N771insSVD); settings: Mus musculus, BaF3, 72 h; 3 days of incubation; read-out: Ba/F3 (D770_N771 insSVD) CC50
Description: as §1, §2

Ba/F3 (H773_V774insSVD) = assay: Cellular growth inhibition assay (CellTiter-Glo), Ba/F3 (H773_V774insSVD); settings: Mus musculus, BaF3, 72 h; 3 days of incubation; read-out: Ba/F3 (H773_V774 insSVD) CC50
Ba/F3 (A767_dupASV) = assay: Cellular growth inhibition assay (CellTiter-Glo), Ba/F3 (A767_dupASV); settings: Mus musculus, BaF3, 72 h; 3 days of incubation; read-out: Ba/F3 (A767_dup ASV) CC50
Description: as §1, §2

Compound | CC50 (Ba/F3 (L858R + T790M)) [nM] | CC50 (Ba/F3 (EGFRwt)) [nM] | CC50 at 3 days [1] [nM] | CC50 (Ba/F3 (D770_N771insSVD)) [nM] | CC50 (Ba/F3 (H773_V774insSVD)) [nM] | CC50 (Ba/F3 (A767_dupASV)) [nM]
COc1c(F)cccc1Nc1c2[nH]c3c1C(=O)NCC3CC(=O)N1CCN(CCOc3cnccc3-2)CC1 (stereo not drawn) [Compound 131, 20-(3-fluoro-2-methoxyanilino)-6,7,9,10,13,13a,14,15-octahydro-12H-8,11-ethano-17,19-(metheno)dipyrido[3,4-j: 4′,3′-n][1,4,7,12]oxatriazacyclopentadecine-12,16(18H)-dione] | 100 to 1000 | 10 to 100 | 1000 to 10000 | 10 to 100 | 100 to 1000 | 1 to 10
COc1c(F)cccc1Nc1c2[nH]c3c1C(=O)NC[C@@H]3CC(=O)N1CCC[C@H]1C(=O)NCCCOc1cnccc1-2 [Compound 147, (16aS,22aS)-23-(3-fluoro-2-methoxyanilino)-14,15,16a,17,18,19,22,22a-octahydro-2H,12H-4,6-(metheno)dipyrido[3,4-k: 4′,3′-o]pyrrolo[2,1-g][1,5,8,13]oxatriazacyclohexadecine-3,16,21(1H,5H,13H)-trione] | > 10000 | > 10000 | > 10000 | > 10000 | > 10000 | > 10000
COc1c(F)cccc1Nc1c2[nH]c3c1C(=O)NCC3CCCOCCN(C)CCCOc1cnccc1-2 (stereo not drawn) [Compound 145, 22-(3-fluoro-2-methoxyanilino)-9-methyl-6,7,8,9,10,11,13,14,15,15a,16,17-dodecahydro-19,21-(metheno)dipyrido[3,4-i: 4′,3′-m][1,8,4,12]dioxadiazacycloheptadecin-18(20H)-one] | > 10000 | > 10000 | > 10000 | 10 to 100 | 100 to 1000 | 10 to 100
COc1c(F)cccc1Nc1c2[nH]c3c1C(=O)NCC3C/C=C\CCCC(=O)N1CCCC(COc3cnccc3-2)C1 (stereo not drawn) [Compound 117, 25-[(3-Fluoro-2-methoxyphenyl)amino]-7,8,9,10,14,15,18,18a,19,20-decahydro-6H-7,11-methano-22,24-methenodipyrido[3,4-b:4′,3′-f][1,5,15]oxadiazacycloicosine-12,21(13H,23H)-dione] | 1000 to 10000 | 100 to 1000 | > 10000 | 100 to 1000 | 1000 to 10000 | 10 to 100
COc1c(F)cccc1Nc1c2[nH]c3c1C(=O)NCC3CCCOCCNCCCOc1cnccc1-2 (stereo not drawn) [Compound 143, 22-(3-fluoro-2-methoxyanilino)-6,7,8,9,10,11,13,14,15,15a,16,17-dodecahydro-19,21-(metheno)dipyrido[3,4-i: 4′,3′-m][1,8,4,12]dioxadiazacycloheptadecin-18(20H)-one] | > 10000 |  | > 10000 | > 10000 | > 10000 | > 10000
COc1c(F)cccc1Nc1c2[nH]c3c1C(=O)NCC3CCCN1CCC(COc3cnccc3-2)C1 (stereo not drawn) [Compound 161, 20-(3-fluoro-2-methoxyanilino)-6,7,8,9,11,12,13,13a,14,15-decahydro-7,10-methano-17,19-(metheno)dipyrido[3,4-b: 4′,3′-f][1,5,11]oxadiazacyclopentadecin-16(18H)-one] | 1000 to 10000 |  | > 10000 | 100 to 1000 | 1000 to 10000 | 10 to 100
COc1c(F)cccc1Nc1c2[nH]c3c1C(=O)NCC3CCCCN1CC(COc3cnccc3-2)C1 (stereo not drawn) [Compound 123, 20-(3-fluoro-2-methoxyanilino)-7,8,11,12,13,13a,14,15-octahydro-6H,10H-7,9-methano-17,19-(metheno)dipyrido[3,4-b: 4′,3′-f][1,5,12]oxadiazacyclopentadecin-16(18H)-one] | 100 to 1000 |  | 1000 to 10000 | 10 to 100 | 100 to 1000 | 1 to 10
COc1c(F)cccc1Nc1c2[nH]c3c1C(=O)NC[C@H]3CCCN1CC[C@@H](COc3cnccc3-2)C1 (stereo in doubt) [Compound 163, 20-[(3-Fluoro-2-methoxyphenyl)amino]-6,7,8,9,11,12,13,13a,14,15-decahydro-7,10-methano-17,19-methenodipyrido[3,4-b:4′,3′-f][1,5,11]oxadiazacyclopentadecin-16(18H)-one] | > 10000 |  | > 10000 | 100 to 1000 | 100 to 1000 | 10 to 100
COc1c(F)cccc1Nc1c2[nH]c3c1C(=O)NCC3CC(=O)N[C@@H](C)C(=O)NCCCOc1cnccc1-2 (stereo partly drawn) [Compound 140, (11S)-21-(3-fluoro-2-methoxyanilino)-11-methyl-6,7,8,9,11,12,14,14a,15,16-decahydro-18,20-(metheno)dipyrido[3,4-k: 4′,3′-o][1,5,8,13]oxatriazacyclohexadecine-10,13,17(19H)-trione] | > 10000 |  | > 10000 | > 10000 | > 10000 | 1000 to 10000
COc1c(F)cccc1Nc1c2[nH]c3c1C(=O)NCC3CCCN1CCCC(C1)Oc1cnccc1-2 (stereo not drawn) [Compound 166, 20-(3-fluoro-2-methoxyanilino)-6,7,8,9,11,12,13,13a,14,15-decahydro-6,10-methano-17,19-(metheno)dipyrido[3,4-b: 4′,3′-f][1,5,11]oxadiazacyclopentadecin-16(18H)-one] | 1000 to 10000 |  | > 10000 | 10 to 100 | 100 to 1000 | 1 to 10
COc1c(F)cccc1Nc1c2[nH]c3c1C(=O)NC[C@H]3CCCN1CCO[C@H](COc3cnccc3-2)C1 [Compound 158, (7S)-21-[(3-Fluoro-2-methoxyphenyl)amino]-6,7,9,10,12,13,14,14a,15,16-decahydro-7,11-methano-18,20-methenodipyrido[3,4-k:4′,3′-o][1,4,7,13]dioxadiazacyclohexadecin-17(19H)-one] | > 10000 |  | 1000 to 10000 | 1000 to 10000 | 1000 to 10000 | 100 to 1000
COc1c(F)cccc1Nc1c2[nH]c3c1C(=O)NCC3CCCCN(C(C)C)CCOc1cnccc1-2 (stereo not drawn) [Compound 159, 19-(3-fluoro-2-methoxyanilino)-8-(propan-2-yl)-6,7,8,9,10,11,12,12a,13,14-decahydro-16,18-(metheno)dipyrido[3,4-i: 4′,3′-m][1,4,11]oxadiazacyclotetradecin-15(17H)-one] | > 10000 |  | > 10000 | 1000 to 10000 | 1000 to 10000 | 100 to 1000
COc1c(F)cccc1Nc1c2[nH]c3c1C(=O)NCC3CCCN1CC(COc3cnccc3-2)C1 (stereo not drawn) [Compound 160, 19-[(3-Fluoro-2-methoxyphenyl)amino]-7,8,10,11,12,12a,13,14-octahydro-6H-7,9-methano-16,18-methenodipyrido[3,4-b:4′,3′-f][1,5,11]oxadiazacyclotetradecin-15(17H)-one] | > 10000 |  | > 10000 | 1000 to 10000 | 1000 to 10000 | 100 to 1000
COc1c(F)cccc1Nc1c2[nH]c3c1C(=O)NCC3CCCOCCCCCCN1CCC(CC1)Oc1cnccc1-2 (stereo not drawn) [Compound 137, 28-(3-fluoro-2-methoxyanilino)-1,2,13,14,16,17,18,19,20,21,23,24,25,25a-tetradecahydro-12H-12,15-ethano-4,6-(metheno)dipyrido[3,4-b: 4′,3′-f][1,11,5,18]dioxadiazacyclohenicosin-3(5H)-one] | 1000 to 10000 |  | > 10000 | 1000 to 10000 | 1000 to 10000 | 100 to 1000
COc1c(F)cccc1Nc1c2[nH]c3c1C(=O)NCC3CCCN1CCCC(COc3cnccc3-2)C1 (stereo not drawn) [Compound 12, 21-[(3-Fluoro-2-methoxyphenyl)amino]-7,8,9,10,12,13,14,14a,15,16-decahydro-6H-7,11-methano-18,20-methenodipyrido[3,4-b:4′,3′-f][1,5,11]oxadiazacyclohexadecin-17(19H)-one] | > 10000 |  | > 10000 | 1000 to 10000 | > 10000 | 100 to 1000
COc1c(F)cccc1Nc1c2[nH]c3c1C(=O)NC(CCCCOCCOc1cnccc1-2)C3 (stereo not drawn) [Compound 133, 20-(3-fluoro-2-methoxyanilino)-2,3,5,6,7,8,9,10-octahydro-9,13-methano-12,15-(metheno)pyrido[3,4-e][1,4,8,12]dioxadiazacycloheptadecin-11(14H)-one] | > 10000 |  | > 10000 | > 10000 | > 10000 | 1000 to 10000
